Results published in publication PMC8347608, “Natural Compounds Isolated from Stachybotrys chartarum Are Potent Inhibitors of Human Protein Kinase CK2” (Molecules, 2021).
Like-named read-outs stand apart in the source and are kept apart here. Values belong to the molecule of their own block, whether it stands above or below them.

Experiments:
[1] = target: human recombinant CK2 holoenzyme (Homo sapiens, UniProt P68400); experiment: CE-based CK2 activity assay (substrate peptide RRRDDDSDDD); format: biochemical
MTT cell viability assay = details: human, cell viability (% of control)
A427 cells [2] = experiment: IncuCyte live-cell imaging, cell growth (confluence); format: cell-based, human; details: 48 h
A431 cells [3] = experiment: as above; format: cell-based, human; details: 48 h
LDH-5 from rabbit muscle = target: T1, LDH-5 from rabbit muscle (Oryctolagus cuniculus, UniProt P13491); experiment: LDH assay (NADH absorption at 340 nm); format: biochemical; details: 10 µM compound; data not shown
T1 construct: LDH-5 from rabbit muscle; purchased Roche Diagnostics GmbH, Mannheim, Germany; host or cells: rabbit muscle
Source text: A reaction of aldehyde groups appearing at position 4´and 5´ of the phenylspirodrimanes such as acetoxystachybotrydial acetate (Figure 1) with amino acids in proteins has been reported before. The ATP dependency of the IC50 value as shown above is a clear indicator that the interaction between the compound and CK2 seems to be specific and is not due to any non-specific reaction of the dialdehydes of phenylspirodrimanes with amines in a protein. Finally, to rule out this aspect, the inhibitory effect of acetoxystachybotrydial acetate on lactate dehydrogenase (LDH) was determined. Even at a concentration of 10 µM, no inhibition of LDH by acetoxystachybotrydial acetate was observed, indicating no non-specific interaction of acetoxystachybotrydial acetate by coupling to protein amines (data not shown).
For the determination of enzymatic activity of lactate dehydrogenase (LDH), 0.25 µg of LDH-5 from rabbit muscle (Roche Diagnostics GmbH, Mannheim, Germany) was incubated in phosphate buffered saline (PBS) containing 0.25 mM nicotinamide adenine dinucleotide (NADH) and 0.625 mM pyruvate in a total volume of 1 mL at room temperature. Absorption at 340 nm was monitored every 5 s within 5 min. For the determination of inhibitory activity of phenylspirodrimanes towards LDH, acetoxystachybotrydial acetate was added in a final concentration of 10 µM; 0.1% DMSO served as a control.

[4] = system: MCF7 NucLight Green cells; experiment: EdU cell proliferation assay; format: cell-based, human; details: for proliferating cells relative to control: 24 h incubation
[5] = system: MCF7 NucLight Green cells; experiment: IncuCyte live-cell imaging, cell growth (confluence); format: cell-based, human; details: 48 h
in vitro = details: human
A427 cells [6] = experiment: MTT cell viability assay; details: 48 h; for reduction of cell viability: 10 µM, data not shown
A431 cells [7] = experiment: MTT cell viability assay; details: 48 h; for reduction of cell viability: 10 µM, data not shown
MCF7 cells [8] = system: MCF7 cells
MCF7 cells [9] = experiment: MTT cell viability assay; details: 100 µM, 48 h
MCF7 cells [10] = system: MCF7 cells; parameters: method as in PMID 30965682; details: other human CK2 inhibitor, compared with MCF7 value; cited from earlier work
[11] = 10 µM compound, relative to DMSO control, read-out: % Inhibition at 10 µM
[12] = read-out: % Inhibition at 10 µM
[13] = nine concentrations 0.001-100 µM, mean ± SD, three independent experiments, read-out: IC50

Sequence of human recombinant CK2 holoenzyme (P68400 whole entry): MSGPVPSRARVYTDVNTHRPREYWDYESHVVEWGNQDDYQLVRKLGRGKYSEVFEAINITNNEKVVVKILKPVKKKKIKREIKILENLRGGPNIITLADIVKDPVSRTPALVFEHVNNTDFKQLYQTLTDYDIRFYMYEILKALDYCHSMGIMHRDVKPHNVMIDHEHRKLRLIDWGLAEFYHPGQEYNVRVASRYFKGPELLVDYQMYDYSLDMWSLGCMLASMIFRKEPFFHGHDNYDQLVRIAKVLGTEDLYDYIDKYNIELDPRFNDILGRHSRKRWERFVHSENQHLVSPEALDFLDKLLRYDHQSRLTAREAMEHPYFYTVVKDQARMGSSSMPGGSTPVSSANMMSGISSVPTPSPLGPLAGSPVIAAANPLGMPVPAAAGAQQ
Sequence of human recombinant CK2 holoenzyme (P67870 whole entry partner): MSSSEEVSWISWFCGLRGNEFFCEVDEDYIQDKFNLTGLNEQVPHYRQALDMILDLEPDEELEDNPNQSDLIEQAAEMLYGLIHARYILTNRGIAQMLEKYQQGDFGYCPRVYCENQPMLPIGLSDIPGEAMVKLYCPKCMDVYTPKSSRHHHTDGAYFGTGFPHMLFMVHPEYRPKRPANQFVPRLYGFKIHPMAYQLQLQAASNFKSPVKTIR

SMILES: CC(=O)OC1CC2(C)C(CCC(C)C23Cc2c(O)cc(C=O)c(C=O)c2O3)C(C)(C)C1OC(C)=O (centres unmarked) [Acetoxystachybotrydial acetate]
- IC50 [1]: 1.86 µM
- Ki [1]: 1.41 µM
- mode of inhibition [1]: ATP competitive mode of inhibition
- viability at 48 h, 1 µM (MTT cell viability assay; 1 µM): 14%
- viability at 48 h, 100 µM (MTT cell viability assay; 100 µM): 12%
- cell growth (confluence) (A427 cells [2]; 1 µM): strongly impaired
- cell growth (confluence) (A431 cells [3]; 1 µM): completely blocked
- inhibition of LDH (LDH-5 from rabbit muscle): no inhibition
- proliferating cells relative to control ([4]; 1 µM): Less than 1%
- EC50 ([4]; Homo sapiens, MCF7, 24 h, read-out: EC50 inhibition of cell proliferation): 0.39 µM
- cell growth (confluence) ([5]; 1 µM): completely blocked
- total number of cells (phase contrast images) ([5]; 1 µM, compared with 1% DMSO control): strongly reduced

- inhibition at 10 µM [1, 11]: 42%
SMILES: C[C@@H]1CC[C@H]2C(C)(C)[C@H](O)CC[C@]2(C)[C@@]12Cc1c(O)cc(CO)c(C=O)c1O2 [L-671]

- inhibition at 10 µM [1, 11]: 47%
SMILES: CC(=O)O[C@@H]1[C@H](OC(C)=O)C[C@@]2(C)[C@@H](CC[C@@H](C)[C@]23Cc2c(O)cc(CO)c(C=O)c2O3)C1(C)C [Stachybonoid D]

SMILES: C[C@@H]1CC[C@H]2C(C)(C)[C@H](O)CC[C@]2(C)[C@@]12Cc1c(O)cc3c(c1O2)CN(CCO)C3=O [Stachybotryamide]
- inhibition at 10 µM [1, 12]: 21%

SMILES: CC(C)=CCC/C(C)=C/CC[C@@]1(C)C=Cc2c(O)cc(C)c(C=O)c2O1 [Stachybotrychromene A]
- inhibition at 10 µM [1, 12]: 26%

SMILES: CC(=O)Oc1cc(O)c2c(c1C=O)O[C@@](C)(CC/C=C(\C)CCC=C(C)C)C=C2 [Stachybotrychromene B]
- inhibition at 10 µM [1, 12]: 47%

- IC50 [1, 13]: 0.32 µM
SMILES: CC(C)=CCCC(C)=CCCC1(C)C=Cc2c(O)cc(C=O)c(C=O)c2O1 (centres unmarked) [Stachybotrychromene C]
- viability at 48 h, 1 µM (in vitro): 155%
- reduction of cell viability (by %) (A427 cells [6]; 1 µM): 32%
- reduction of cell viability (A427 cells [6]): Almost no further reduction
- increase of inhibitory effect on cell viability compared with 1 µM (A427 cells [6]; 100 µM): ~10%
- cell growth (confluence) (A427 cells [2]; 1 µM): no inhibition of growth
- cell growth (confluence) (A427 cells [2]; 100 µM): no other cell line was affected
- reduction of cell viability (by %) (A431 cells [7]; 1 µM): 27%
- reduction of cell viability (A431 cells [7]): Almost no further reduction
- increase of inhibitory effect on cell viability compared with 1 µM (A431 cells [7]; 100 µM): ~10%
- cell growth (confluence) (A431 cells [3]; 1 µM): no inhibition of growth
- cell growth (confluence) (A431 cells [3]; 100 µM): no other cell line was affected
- cell viability (% of control) (MCF7 cells [8]; 100 µM): not decreased
- proliferating cells relative to control ([4]; 100 µM): negligible effects
- cell growth (confluence) ([5]; 1 µM): no inhibition of growth
- cell growth (confluence) ([5]; 100 µM): reduce the growth

- IC50 [1, 13]: 0.69 µM
SMILES: CC(=O)OC1CCC2(C)C(CCC(C)C23Cc2c(O)cc(C=O)c(C=O)c2O3)C1(C)C (centres unmarked) [Stachybotrydial acetate]
- reduction of cell viability (by %) (MCF7 cells [9]): 86%
- reduction of cell viability (A427 cells [6]): not significant
- reduction of cell viability (by %) (A427 cells [6]; 100 µM): 82%
- cell growth (confluence) (A427 cells [2]; 1 µM): no effect
- cell growth (confluence) (A427 cells [2]; 100 µM): completely blocked
- reduction of cell viability (A431 cells [7]): not significant
- reduction of cell viability (by %) (A431 cells [7]; 100 µM): 93%
- cell growth (confluence) (A431 cells [3]; 1 µM): no effect
- cell growth (confluence) (A431 cells [3]; 100 µM): completely blocked
- cell viability (% of control) (MCF7 cells [8]; 1 µM): increased
- cell growth (confluence) ([5]; 1 µM): no effect
- cell growth (confluence) ([5]; 100 µM): completely blocked

- IC50 [1, 13]: 4.43 µM
SMILES: C[C@@H]1CC[C@H]2C(C)(C)[C@H](O)CC[C@]2(C)[C@@]12Cc1c(O)cc(C=O)c(C=O)c1O2 [Stachybotrydial]

SMILES: CC(=O)O[C@@H]1CC[C@@]2(C)[C@@H](CC[C@@H](C)[C@]23Cc2c(O)cc4c(c2O3)CNC4=O)C1(C)C [Stachybotrylactam acetate]
- inhibition at 10 µM [1, 12]: 44%

- % Inhibition at 10 µM [1]: 50%
- IC50 [1, 13]: 13.4 µM
- inhibition at 10 µM ([1]; read-out: % Inhibition at 10 µM, 10 µM compound, relative to DMSO control): > 50%
SMILES: CC(=O)O[C@@H]1CC[C@@]2(C)[C@@H](CC[C@@H](C)[C@]23Cc2c(O)cc(CO)c(C=O)c2O3)C1(C)C [Stachybotrysin B]

SMILES: CC(=O)O[C@@H]1[C@H](O)C[C@@]2(C)[C@@H](CC[C@@H](C)[C@]23Cc2c(O)cc(CO)c(C=O)c2O3)C1(C)C [Stachybotrysin C]
- inhibition at 10 µM [1, 12]: 37%

SMILES: COC1=CC(=O)c2c(c(O)c3oc4cc(OC)cc(C)c4c(=O)c3c2O)C1=O [bikaverin]
- EC50 (MCF7 cells [10]): 1.97 µM

SMILES: Cc1cc(O)c2c(c1)C(=O)c1cc(O)cc(O)c1C2=O [emodin, reference compound]
- proliferating cells relative to control ([4]; 1 µM): no effect
- proliferating cells relative to control ([4]; 10 µM): 77%
- proliferating cells relative to control ([4]; 100 µM): 5%
